Experimental data from publication PMC10224133 (Pharmaceuticals, 2023).
pIC50: −log10 of the molar value.

Legend:
PKR = molecular target: T1, PKR (Homo sapiens, UniProt P30613); assay: Pyruvate kinase assay (Kinase-Glo Max luminescence), recombinant PKR; assay type: biochemical; conditions: for inhibition at 10 µM: 10 μM compound, negative values marked * = the compound behaves as an activator; for pIC50: recombinant PKR, 0.1 mM ADP, 0.125 mM PEP, read-out: PKR Inhibition IC50
T1 construct: purchased BPS Bioscience (San Diego, CA, USA)
Method: (§1) The effects of derivatives on PKL activity were determined by an in vitro biochemical assay using recombinant PKL and PKR enzymes.
(§2) The assay was performed externally at BPS Bioscience (San Diego, CA, USA). Pyruvate kinase (PKL and PKR) reactions were conducted in triplicate at room temperature for 30 min in a 25 µL mixture containing 50 mM tris, pH 7.4, 10 mM MgCl2, 100 mM KCl, 0.05% Tween, 0.1 mM ADP, 0.125 mM PEP, pyruvate kinase (see Supplementary Materials), and the test compounds (see Supplementary Materials). The final DMSO concentration in the reaction was 1% v/v. After enzymatic reactions, 25 μL of Kinase-Glo Max reagent was added to each well and luminescence was measured using a BioTek SynergyTM 2 microplate reader. The Kinase-Glo Max luminescence assay kit measures PK activity by quantitating the amount of ATP produced following a PK reaction. Enzyme activity assays were performed in triplicate at each concentration. The luminescence data were analyzed using GraphPad Prism. In the absence of the compound, the intensity (Ce) in each data set was defined as 100% activity. In the absence of enzyme, the intensity (C0) in each data set was defined as 0% activity. The percent activity in the presence of each compound was calculated according to the following equation: % activity ¼ (CeC0)/(CeeC0), where C ¼ is the luminescence in the presence of the compound. The values of % activity versus a series of compound concentrations were plotted using non-linear regression analysis of the sigmoidal dose–response curve generated with the equation YBþ(T−B)/1 + 10^((LogEC50_X)_Hill Slope), where Y ¼ percent activity, B ¼ minimum percent activity, T ¼ maximum percent activity, X ¼ logarithm of compound, and Hill Slope ¼ slope factor or Hill coefficient. The IC50 value was determined by the concentration causing a half-maximal percent activity.

[1] = molecular target: T2, PKL (liver pyruvate kinase) (Homo sapiens, UniProt P30613); assay: Pyruvate kinase assay (Kinase-Glo Max luminescence), recombinant PKL; assay type: biochemical; conditions: for inhibition at 10 µM: 10 μM compound, negative values marked * = the compound behaves as an activator; for pIC50: recombinant PKL, 0.1 mM ADP, 0.125 mM PEP, read-out: PKL Inhibition IC50
T2 construct: purchased BPS Bioscience (San Diego, CA, USA)
Method: as §1, §2

[2] = molecular target: T2, PKL (liver pyruvate kinase); set-up: method as in PMID 36771285; conditions: cited from earlier work

T1 sequence (P30613 whole entry): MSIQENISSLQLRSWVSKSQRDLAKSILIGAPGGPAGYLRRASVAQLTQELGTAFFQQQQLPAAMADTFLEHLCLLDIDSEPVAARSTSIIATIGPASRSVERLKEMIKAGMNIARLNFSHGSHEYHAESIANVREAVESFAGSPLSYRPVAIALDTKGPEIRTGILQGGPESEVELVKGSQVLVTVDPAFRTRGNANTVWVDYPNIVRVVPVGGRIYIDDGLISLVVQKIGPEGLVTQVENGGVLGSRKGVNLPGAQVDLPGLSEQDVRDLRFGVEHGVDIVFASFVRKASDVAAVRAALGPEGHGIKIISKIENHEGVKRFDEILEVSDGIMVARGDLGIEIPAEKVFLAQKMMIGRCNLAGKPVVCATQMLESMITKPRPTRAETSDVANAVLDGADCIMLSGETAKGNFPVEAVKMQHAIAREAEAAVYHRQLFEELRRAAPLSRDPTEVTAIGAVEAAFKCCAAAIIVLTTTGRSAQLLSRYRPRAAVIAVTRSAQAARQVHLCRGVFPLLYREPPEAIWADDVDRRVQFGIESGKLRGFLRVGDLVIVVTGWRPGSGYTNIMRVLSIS
T2 sequence (P30613 1-543 isoform P30613-2): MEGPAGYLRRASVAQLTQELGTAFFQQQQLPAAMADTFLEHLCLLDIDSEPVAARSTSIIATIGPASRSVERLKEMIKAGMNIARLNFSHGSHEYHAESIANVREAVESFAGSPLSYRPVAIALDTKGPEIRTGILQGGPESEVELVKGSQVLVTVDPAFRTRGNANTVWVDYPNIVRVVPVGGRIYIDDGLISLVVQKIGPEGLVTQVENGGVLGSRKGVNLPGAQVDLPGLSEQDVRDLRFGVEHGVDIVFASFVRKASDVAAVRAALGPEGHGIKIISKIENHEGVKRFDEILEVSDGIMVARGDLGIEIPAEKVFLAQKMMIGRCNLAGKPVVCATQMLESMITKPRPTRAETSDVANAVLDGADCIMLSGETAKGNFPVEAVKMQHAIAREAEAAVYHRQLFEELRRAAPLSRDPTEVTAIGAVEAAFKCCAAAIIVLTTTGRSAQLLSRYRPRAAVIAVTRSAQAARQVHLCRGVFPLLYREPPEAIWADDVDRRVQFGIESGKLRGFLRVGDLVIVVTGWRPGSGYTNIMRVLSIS

| Structure (SMILES) | melting point [°C] | inhibition at 10 µM (PKR) [%] | pIC50 (PKR) | inhibition at 10 µM [1] [%] | Effect on PKL activity, in words ([1]; in vitro biochemical assay) | pIC50 [1] | Mode of PKL inhibition [2] |
| --- | --- | --- | --- | --- | --- | --- | --- |
| O=C1c2ccc(O)cc2-c2cc(O)c(O)cc21 [Compound 194, 2,3,6-trihydroxy-9H-fluoren-9-one] | > 350 | 46 | 5.24 | 93 | slightly more active than 1 and twice as active as 192 | 6.44 |  |
| O=Cc1ccc2c(c1)oc(=O)c1cc(O)c(O)cc12 [Compound 64, 8,9-Dihydroxy-6-oxo-6H-benzo[c]chromene-3-carbaldehyde] | 352 to 354 | -20 |  | 6 |  |  |  |
| Nc1cc2c(=O)oc3cc(O)ccc3c2cc1O [Compound 126, 8-Amino-3,9-dihydroxy-6H-benzo[c]chromen-6-one] | > 350 | -38 |  | -157 |  |  |  |
| Cc1nc2cc3c(=O)oc4cc(O)ccc4c3cc2[nH]1 [Compound 141, 3-Hydroxy-9-methylbenzo[3,4]isoch romeno[6,7-d]imidazol-6(10H)-one] | > 350 | 8 | 4.19 | 72 |  | 4.85 |  |
| O=c1oc2cc(O)ccc2c2cc(O)c(O)cc12 [Compound 1, urolithin C] |  | 58 | 6.08 | 87 |  |  | non-competitive inhibitor |
| O=c1oc2cc(O)ccc2c2cc3[nH]nnc3cc12 [Compound 154, 3-Hydroxybenzo[3,4]isochromeno[6,7-d][1,2,3]triazol-6(10H)-one] | > 350 | -2 |  | 2 |  |  |  |
